In one data set the target is T1, recombinant human SIRT1 (Homo sapiens, UniProt Q96EB6).
T1 sequence (Q96EB6 1-747): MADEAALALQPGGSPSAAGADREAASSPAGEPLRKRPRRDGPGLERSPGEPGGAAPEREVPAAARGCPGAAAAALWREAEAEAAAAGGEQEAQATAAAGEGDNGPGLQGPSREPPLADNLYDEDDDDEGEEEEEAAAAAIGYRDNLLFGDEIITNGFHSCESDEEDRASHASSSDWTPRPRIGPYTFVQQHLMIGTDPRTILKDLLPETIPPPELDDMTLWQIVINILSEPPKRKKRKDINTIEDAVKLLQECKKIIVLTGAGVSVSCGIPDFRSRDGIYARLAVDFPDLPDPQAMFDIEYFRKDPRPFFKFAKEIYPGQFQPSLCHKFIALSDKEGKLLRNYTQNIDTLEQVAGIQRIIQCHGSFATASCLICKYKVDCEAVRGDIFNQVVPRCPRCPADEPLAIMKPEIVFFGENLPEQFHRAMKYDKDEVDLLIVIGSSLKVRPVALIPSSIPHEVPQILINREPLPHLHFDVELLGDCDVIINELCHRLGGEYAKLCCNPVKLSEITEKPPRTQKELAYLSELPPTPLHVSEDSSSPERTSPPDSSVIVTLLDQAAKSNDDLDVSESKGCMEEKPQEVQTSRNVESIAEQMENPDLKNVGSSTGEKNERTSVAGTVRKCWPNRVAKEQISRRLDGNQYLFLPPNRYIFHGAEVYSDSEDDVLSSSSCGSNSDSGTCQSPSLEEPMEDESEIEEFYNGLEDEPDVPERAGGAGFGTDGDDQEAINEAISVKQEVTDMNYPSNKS
Put plainly: SIRT1 fluorescent deacetylation assay (p53-382 acetylated peptide). It is filed as biochemical. The settings on record: 25 μM NAD+, 25 μM p53-382 acetylated peptide, compounds at 100 μM. An excerpt: Lines represent non-linear least-squares fits to the Michaelis-Menten equation. […] Lines represent non-linear least-squares fits to the Michaelis-Menten equation. […] Error bars are standard errors of the mean.
To identify compounds that modulate SIRT1 activity, a number of small molecule libraries were screened using a fluorescent deacetylation assay in 96-well plates^26. The substrate used in the assay was a fluorogenic peptide based on the sequence encompassing the p53-K382 acetylation site, a known target of SIRT1 in vivo^20,21,27. […] The small molecule libraries included analogues of nicotinamide, ε-acetyl lysine, NAD^+, nucleotides, nucleotide analogues and purinergic ligands.
His6-tagged recombinant SIRT1 and GST-tagged recombinant Sir2 were prepared as previously described^26. From 0.1 to 1 μg of SIRT1 and 1.5 μg of Sir2 were used per deacetylation assay (in 50 μl total reaction) as previously described^26.
Themed compound libraries (BIOMOL) were used for primary and secondary screening. Most polyphenol compounds were dissolved at 10 mM in dimethylsulfoxide (DMSO) on the day of the assay. For water soluble compounds and negative controls, 1% v/v DMSO was added to the assay. […] Unless otherwise indicated all initial rate measurements were means of three or more replicates, obtained with single incubation times, at which point 5% or less of the substrate initially present had been deacetylated. Calculation of net fluorescence increases included subtraction of a blank value, which in the case of Sir2 was obtained by omitting the enzyme from the reaction and in the case of SIRT1 by adding an inhibitor (200 μM suramin or 1 mM nicotinamide) to the reaction prior to the acetylated substrate. […] All error bars represent the standard error of the mean.

The next data set concerns S. cerevisiae. Put plainly: Yeast replicative lifespan. The data set is classed as cell-based. How it is done:
Average lifespan for wild type, 22.9 generations, quercetin, 23.4; piceatannol. […]
All yeast strains were grown at 30° C. in complete yeast extract/bactopeptone, 2.0% (w/v) glucose (YPD) medium except where stated otherwise. Calorie restriction was induced in 0.5% glucose. Synthetic complete (SC) medium consisted of 1.67% yeast nitrogen base, 2% glucose, 40 mg/litre each of auxotrophic markers. SIR2 was integrated in extra copy and disrupted as described^5. Other strains are described elsewhere^26. For cellular deacetylation assays, HeLa S3 cells were used. U20S osteosarcoma and human embryonic kidney (HEK 293) cells were cultured adherently in Dulbecco's Modified Eagle's Medium (DMEM) containing 10% fetal calf serum (FCS) with 1.0% glutamine and 1.0% penecillin/streptomycin. HEK 293 overexpressing dominant negative SIRT1 H363Y was a gift of R. Frye (U. Pittsburgh).
Lifespan measurements were performed using PSY316AT MATα as previously described^35. All compounds for lifespan analyses were dissolved in 95% ethanol and plates were dried and used within 24 hours. Prior to lifespan analysis, cells were pre-incubated on their respective media for at least 15 hours. Following transfer to a new plate, cells were equilibrated on the medium for a minimum of 4 hours prior to micro-manipulating them. At least 30 cells were examined per experiment and each experiment was performed at least twice. Statistical significance of lifespan differences was determined using the Wilcoxon rank sum test. Differences are stated to be significant when the confidence is higher than 95%.

A further data set concerns C. elegans. As to the kind of experiment: C. elegans lifespan. It is filed as in vivo. The settings on record: N2 worms, E. coli as food; untreated 100%. The method, then: Thus, the presence of resveratrol in the growth media of C. elegans extends their lifespan.
Bristol N2 (Caenorhabditis Genetics Center) was used as the wild-type strain. The sir-2.1 mutant strain was generated by backcrossing VC199 (sir-2.1(ok434)) to N2 four times. Cultures were grown on standard NGM media and maintained on E. coli strain OP50. For the lifespan assays, synchronized animals were transferred to treatment plates as young adults (2 d after hatching, day 0 of assay), and were transferred to fresh treatment plates every 2 days for the first 6 to 8 days of the assay. […] For some lifespan trials, heat-killed OP50 were used as a food source. OP50 cultures were heated to 65° C. for 30 minutes, then pelleted and resuspended in 1/10 volume in S Basal supplemented with 10 mM MgSO4. In all assays, worms were monitored daily for mortality by gently probing with a platinum pick. Assays were performed at 24° C. To assay worm feeding rates, worms at the indicated stages were placed on treatment plates (no FUdR) for 4-5 hours, then videoed for 1 minute using a Pixelink PL-662 camera. The frame rate was slowed and the pumping rate of the pharynx was counted. To assay fecundity, gravid hermaphrodites (5 per plate, raised from synchronized L1s on normal or treatment plates) were allowed to lay eggs on their respective media for 5 hours, and the total number of eggs was counted.

Data set [1] can be described thus: Solution stability from SIRT1 fold-stimulation of aged stock solutions. The data set is classed as physicochemical. As to conditions: ethanol stock 2.5 mM, room temperature, nitrogen atmosphere. An excerpt: The fold-stimulation (ratio to control) obtained with a compound diluted from an aged stock solution was compared to an identical dilution from a stock solution freshly prepared from the solid compound. “t1/2” is defined as the time required for the SIRT1 fold-stimulation of the compound from the aged solution to decay to one-half of that obtained from a freshly prepared solution. […] Stocks were aged by storage at room temperature, in glass vials, under a nitrogen atmosphere.

For another data set, the system named is HeLa S3 cells. Put plainly: Cellular deacetylase assay (FdL, TSA-insensitive signal). The data set is classed as cell-based, human. As to conditions: 500 μM compound, 200 μM FdL, 1 μM TSA, 1 hour. How it is done:
FdL (200 μM) is added to growth media and cells incubated for 1-3 hours to allow FdL to enter the cells and the lysine-deacetylated product (deAc-FdL) to accumulate intracellularly. Cells are lysed with detergent in the presence of 1 μM TSA, 1 mM nicotinamide. Addition of the non-cell-permeable Developer (BIOMOL) releases a fluorophor, specifically from deAc-FdL. b, SIRT1 activating polyphenols can stimulate TSA-insensitive, FdL deacetylation by HeLa S3 cells. Cells were grown adherently in DMEM/10% FCS and treated for 1 hour with 200 μM FdL, 1 μM TSA and either vehicle (0.5% final DMSO, Control) or 500 μM of the indicated compound. Intracellular accumulation of deAc-FdL was then determined as described briefly in a. […] Lysates were prepared and analyzed as above. […]
Themed compound libraries (BIOMOL) were used for primary and secondary screening. […] In vitro fluorescence assay results were read in white ½-volume 96-well microplates (Coming Costar 3693) with a CytoFluor™. II fluorescence plate reader (PerSeptive Biosystems, Ex. 360 nm, Em. 460 nm, gain=85). HeLa cells were grown and the cellular deacetylation assays were performed and read, as above, but in full-volume 96-well microplates (Coming Costar 3595). […]

Entries after “also recorded” stand apart in the source; their conditions may differ.

The results in this text go back to patent US20060276393A1, “Novel compositions for preventing and treating neurodegenerative and blood coagulation disorders” (Sirtris Pharmaceuticals, Inc., priority 2005, published 2006).

Take `CC(=O)Oc1cc(O)cc(/C=C/c2ccc(O)cc2)c1` [BML-221, 3,4′-Dihydroxy-5-acetoxy-trans-stilbene]: at recombinant human SIRT1, the “SIRT1 stimulating activity (in words)” value is given as “diminished in in vitro SIRT1 activating ability”. The “% change in yeast replicative lifespan relative to untreated organisms (10 μM)” value with S. cerevisiae (10 μM, 2% (w/v) glucose YPD, untreated 100%) is recorded as 165%. The “% change in C. elegans lifespan relative to untreated organisms (100/500 μM)” value with C. elegans was >100%. In addition, the “solution stability relative to resveratrol” value in data set [1] is “strongly increased; also recorded: vast improvement in solution stability relative to resveratrol”.
For the compound `O=C(/C=C/c1ccc(O)c(O)c1)c1ccc(O)cc1O` [butein, 3,4,2′,4′-Tetrahydroxychalcone], in the data set on S. cerevisiae (10 μM), the “increase of average lifespan” value amounted to 31% and the “maximum lifespan (in words)” value is listed as “significantly increased maximum lifespan”. In the data set with S. cerevisiae (10 μM compound, 2% glucose medium, wild type untreated 22.9), this compound yielded an Average lifespan of 35.5 generations. In the data set with HeLa S3 cells, the “TSA-insensitive cellular deacetylation signal” value is listed as “no effect on the cellular signal”.
